Data on 20 molecules can be found in US12115178B2, “Acylated active agents and methods of their use for the treatment of autoimmune disorders” (Flagship Pioneering Innovations V, Inc., priority 2018, dated 2024).

The structures appear in SMILES notation.

Common to all, as to assay type: in vitro ADME
Series [1] can be described thus: Assay 3. In vitro Colonic Material Stability Assay. Conditions: colonic material slurry, anaerobic, 1 or 10 μM. The protocol: Assay 3. In vitro Colonic Material Stability Assay. This assay was used to assess the stability of an acylated active agent in a large intestine. All experiments were performed in an anaerobic chamber containing 90% nitrogen, 5% hydrogen and 5% carbon dioxide. Colonic material was resuspended as a slurry (15% w/v final concentration) in pre-reduced, anaerobically sterilized dilution blanks (Anaerobe Systems AS-908). The colonic material was then inoculated into 96 well plates containing YCFAC media (Anaerobe Systems AS-680) or other suitable media (6.7 μL slurry into 1 mL total media). Compounds or groups of compounds were added to each individual well to reach a final analyte concentration of 1 or 10 μM, and the material was mixed by pipetting. Sample was removed after set timepoints (0, 120, 240, 480, 1440, 2880 minutes after initiation of the assay), quenched with acetonitrile containing internal standard, and analyzed by LC/MS.

Series [2] in a line: Assay 2. Stability in Simulated Intestinal Fluid (SIF). The note with it: SIF pH 6.7 with pancreatin, 1 μM, 37° C. The method, boiled down: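 Degradation rates came from LC/MS of acetonitrile-quenched samples drawn at intervals, starting at T0. The medium was freshly made pH 6.7 FaSSIF containing pancreatin, and test compound was present at 1 µM while being shaken at 37 °C.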

Series [3] in a line: Assay 1. Stability in Simulated Gastric Fluid (SGF). The note with it: SGF pH 1.6 with pepsin, 1 μM, 37° C. The method, boiled down:
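Degradation rate from LC/MS of acetonitrile-quenched aliquots (T0, then regular intervals). Fresh SGF (pH 1.6 NaCl, FaSSIF powder, pepsin 0.1 mg/mL) held compound at 1 μM final, 37° C; 1 mM DMSO stock.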

On to `CCCC(=O)O[C@@H]1[C@@H](OC(=O)CCC)[C@H](C)O[C@H](Oc2ccccc2C(=O)O)[C@@H]1OC(=O)CCC` [Compound 38, 2-(((2R,3R,4R,5S,6S)-3,4,5-tris(butyryloxy)-6-methyltetrahydro-2H-pyran-2-yl)oxy)benzoic acid], for which the “Assay 3 (% Remaining at 24 h)” value in series [1] was “C (>75% of the tested compound remaining)”. The “Assay 2 (SIF) (% @ Remaining 4 hours)” value in series [2] is listed as “C (>75% of the tested compound remaining)”. For the molecule `CCCC(=O)OC[C@H]1O[C@H](OC)[C@H](OC(=O)CCC)[C@@H](OC(=O)CCC)[C@H]1OC(=O)CCC` [Compound 56, [(2R,3S,4S,5R,6S)-3,4,5-tris(butanoyloxy)-6-methoxyoxan-2-yl]methyl butanoate], the “Assay 3 (% Remaining at 24 h)” value in series [1] was “A (<25% of the tested compound remaining)”. The “Assay 2 (SIF) (% @ Remaining 4 hours)” value in series [2] is listed as “A (<25% of the tested compound remaining)”. As to `CCCC(=O)OC[C@H]1O[C@@H](Oc2ccc(N)cc2C(=O)O)[C@H](OC(=O)CCC)[C@@H](OC(=O)CCC)[C@@H]1OC(=O)CCC` [Compound 36, 5-amino-2-(((2S,3R,4S,5R,6R)-3,4,5-tris(butyryloxy)-6-((butyryloxy)methyl)tetrahydro-2H-pyran-2-yl)oxy)benzoic acid], in series [1], the “Assay 3 (% Remaining at 24 h)” value is on record as “C (>75% of the tested compound remaining)”. Moreover, the “Assay 2 (SIF) (% @ Remaining 4 hours)” value in series [2] is reported as “C (>75% of the tested compound remaining)”. With `CCCC(=O)O[C@@H]1[C@@H](OC(=O)CCC)[C@H](Oc2ccc(N)cc2C(=O)O)OC[C@H]1OC(=O)CCC` [Compound 183, 5-amino-2-[(2S,3R,4S,5R)-3,4,5-tri(butanoyloxy)tetrahydropyran-2-yl]oxy-benzoic acid], the “Assay 3 (% Remaining at 24 h)” value in series [1] is on record as “B (25-75% of the tested compound remaining)”. In series [2], the “Assay 2 (SIF) (% @ Remaining 4 hours)” value is reported as “B (25-75% of the tested compound remaining)”. Consider `CCCC(=O)OC[C@H]1O[C@@H](OC)[C@H](OC(=O)CCC)[C@@H](OC(=O)CCC)[C@@H]1OC(=O)CCC` [Compound 58, [(2R,3R,4S,5R,6R)-3,4,5-tris(butanoyloxy)-6-methoxyoxan-2-yl]methyl butanoate], for which the “Assay 3 (% Remaining at 24 h)” value in series [1] is on record as “A (<25% of the tested compound remaining)”. In addition, the “Assay 2 (SIF) (% @ Remaining 4 hours)” value in series [2] is given as “A (<25% of the tested compound remaining)”. Take `CCC(=O)OC[C@H]1O[C@@H](OC)[C@H](OC(=O)CC)[C@@H](OC(=O)CC)[C@@H]1OC(=O)CC` [Compound 59, [(2R,3R,4S,5R,6R)-6-methoxy-3,4,5-tris(propanoyloxy)oxan-2-yl]methyl propanoate]: the “Assay 3 (% Remaining at 24 h)” value in series [1] was “A (<25% of the tested compound remaining)”. Besides, the “Assay 2 (SIF) (% @ Remaining 4 hours)” value in series [2] is reported as “A (<25% of the tested compound remaining)”. For `CCCC(=O)O[C@H]1[C@H](OC(=O)CCC)[C@@H](OC(=O)CCc2c[nH]c3ccccc23)O[C@@H](C)[C@H]1OC(=O)CCC` [Compound 87, (2R,3S,4R,5R,6S)-4,5-bis(butanoyloxy)-2-{[3-(1H-indol-3-yl)propanoyl]oxy}-6-methyloxan-3-yl butanoate], in series [1], the “Assay 3 (% Remaining at 24 h)” value is given as “A (<25% of the tested compound remaining)”. Moreover, the “Assay 1 (SGF) (% Remaining @ 1 hour)” value in series [3] is reported as “B (25-75% of the tested compound remaining)”.

Turning to `CCC(=O)Oc1cc(OC(=O)CC)c2c(=O)c(OC(=O)CC)c(-c3ccc(OC(=O)CC)c(OC(=O)CC)c3)oc2c1` [Compound 14, [4-[4-oxo-3,5,7-tri(propanoyloxy)chromen-2-yl]-2-propanoyloxy-phenyl] propanoate], the “Assay 3 (% Remaining at 24 h)” value in series [1] is “C (>75% of the tested compound remaining)”. In series [2], the “Assay 2 (SIF) (% @ Remaining 4 hours)” value is “A (<25% of the tested compound remaining)”. On the same counts, the results for `CCCC(=O)O[C@H]1[C@H](OC(=O)CCC)COC(O)[C@@H]1OC(=O)CCC` (stereo partly drawn) [Compound 158, (3R,4S,5R)-4,5-bis(butanoyloxy)-2-hydroxyoxan-3-yl butanoate] are “A (<25% of the tested compound remaining)” and “A (<25% of the tested compound remaining)”. With `CCCC(=O)O[C@@H]1[C@@H](OC(=O)CCC)[C@H](OC)OC[C@H]1OC(=O)CCC` [Compound 88, (2R,3R,4S,5R)-4,5-bis(butanoyloxy)-2-methoxyoxan-3-yl butanoate], the “Assay 3 (% Remaining at 24 h)” value in series [1] is listed as “A (<25% of the tested compound remaining)”. Further, the “Assay 2 (SIF) (% @ Remaining 4 hours)” value in series [2] is on record as “A (<25% of the tested compound remaining)”. Consider `CCC(=O)O[C@@H]1[C@@H](OC(=O)CC)[C@H](OC(=O)/C=C/c2c[nH]c3ccccc23)OC[C@@H]1OC(=O)CC` [Compound 100, (2S,3R,4S,5S)-3,4,5-tris(propanoyloxy)oxan-2-yl (2E)-3-(1H-indol-3-yl)prop-2-enoate], for which the “Assay 3 (% Remaining at 24 h)” value in series [1] was “A (<25% of the tested compound remaining)”. Moreover, the “Assay 1 (SGF) (% Remaining @ 1 hour)” value in series [3] is listed as “B (25-75% of the tested compound remaining)”. Regarding `O=C(CCc1c[nH]c2ccccc12)O[C@H]1OC[C@@H](OC(=O)CCc2c[nH]c3ccccc23)[C@@H](OC(=O)CCc2c[nH]c3ccccc23)[C@H]1OC(=O)CCc1c[nH]c2ccccc12` [Compound 150, (2R,3R,4R,5R)-3,4,5-tris({[3-(1H-indol-3-yl)propanoyl]oxy})oxan-2-yl 3-(1H-indol-3-yl)propanoate], in series [1], the “Assay 3 (% Remaining at 24 h)” value is “A (<25% of the tested compound remaining)”. Further, the “Assay 2 (SIF) (% @ Remaining 4 hours)” value in series [2] was “A (<25% of the tested compound remaining)”. Regarding `CCCC(=O)O[C@H]1[C@H](OC(=O)CCC)[C@H](Oc2ccccc2C(=O)O)O[C@@H](C)[C@H]1OC(=O)CCC` [Compound 23, 2-(((2S,3S,4R,5R,6S)-3,4,5-tris(butyryloxy)-6-methyltetrahydro-2H-pyran-2-yl)oxy)benzoic acid], in series [1], the “Assay 3 (% Remaining at 24 h)” value is given as “C (>75% of the tested compound remaining)”. Also, the “Assay 2 (SIF) (% @ Remaining 4 hours)” value in series [2] is “B (25-75% of the tested compound remaining)”. For the molecule `CCC(=O)OC[C@H]1O[C@H](OC(=O)/C=C/c2c[nH]c3ccccc23)[C@H](OC(=O)CC)[C@@H](OC(=O)CC)[C@@H]1OC(=O)CC` [Compound 99, (2R,3R,4S,5R,6R)-3,4,5-tris(propanoyloxy)-6-[(propanoyloxy)methyl]oxan-2-yl (2E)-3-(1H-indol-3-yl)prop-2-enoate], the “Assay 3 (% Remaining at 24 h)” value in series [1] is given as “A (<25% of the tested compound remaining)”. For the same molecule, the “Assay 1 (SGF) (% Remaining @ 1 hour)” value in series [3] is “B (25-75% of the tested compound remaining)”. Consider `CCCC(=O)O[C@@H]1[C@@H](OC(=O)CCC)[C@H](Oc2ccc(N)cc2C(=O)O)OC[C@H]1O` [Compound 32, 5-amino-2-(((2S,3R,4S,5R)-3,4-bis(butyryloxy)-5-hydroxytetrahydro-2H-pyran-2-yl)oxy)benzoic acid], for which the “Assay 3 (% Remaining at 24 h)” value in series [1] was “C (>75% of the tested compound remaining)”. Moreover, the “Assay 2 (SIF) (% @ Remaining 4 hours)” value in series [2] was “B (25-75% of the tested compound remaining)”. In the case of `CCCC(=O)Oc1cc(OC(=O)CCC)c2c(c1)O[C@H](c1cc(OC(=O)CCC)c(OC(=O)CCC)c(OC(=O)CCC)c1)[C@H](OC(=O)c1cc(OC(=O)CCC)c(OC(=O)CCC)c(OC(=O)CCC)c1)C2` [Compound 1, [(2R,3R)-5,7-di(butanoyloxy)-2-[3,4,5-tri(butanoyloxy)phenyl]chroman-3-yl] 3,4,5-tri(butanoyloxy)benzoate], the “Assay 3 (% Remaining at 24 h)” value in series [1] is “B (25-75% of the tested compound remaining)”. Further, in series [2], the “Assay 2 (SIF) (% @ Remaining 4 hours)” value was “C (>75% of the tested compound remaining)”. On the same counts, the results for `C[C@@H]1O[C@@H](OC(=O)CCc2c[nH]c3ccccc23)[C@@H](OC(=O)CCc2c[nH]c3ccccc23)[C@H](OC(=O)CCc2c[nH]c3ccccc23)[C@@H]1OC(=O)CCc1c[nH]c2ccccc12` [Compound 64, (2S,3S,4R,5R,6S)-3,4,5-tris({[3-(1H-indol-3-yl)propanoyl]oxy})-6-methyloxan-2-yl 3-(1H-indol-3-yl)propanoate] are “A (<25% of the tested compound remaining)” and “A (<25% of the tested compound remaining)”.

Take `O=C(CCc1c[nH]c2ccccc12)Oc1ccc2c(c1)oc(=O)c1cc(OC(=O)CCc3c[nH]c4ccccc34)c(OC(=O)CCc3c[nH]c4ccccc34)cc12` [Compound 208, 8,9-bis({[3-(1H-indol-3-yl)propanoyl]oxy})-6-oxo-6H-benzo[c]chromen-3-yl 3-(1H-indol-3-yl)propanoate]: in series [1], the “Assay 3 (% Remaining at 24 h)” value is reported as “B (25-75% of the tested compound remaining)”. For the same molecule, the “Assay 2 (SIF) (% @ Remaining 4 hours)” value in series [2] was “B (25-75% of the tested compound remaining)”. Regarding `CCCC(=O)Oc1ccc(N)cc1C(=O)O` [Compound 16, 5-amino-2-butanoyloxy-benzoic acid], the “Assay 3 (% Remaining at 24 h)” value in series [1] is recorded as “C (>75% of the tested compound remaining)”. Moreover, in series [2], the “Assay 2 (SIF) (% @ Remaining 4 hours)” value is recorded as “C (>75% of the tested compound remaining)”.

As to `CCCC(=O)Oc1ccc2c(c1)oc(=O)c1cc(OC(=O)CCC)c(OC(=O)CCC)cc12` [Compound 210, 8,9-bis(butanoyloxy)-6-oxo-6H-benzo[c]chromen-3-yl butanoate], the “Assay 3 (% Remaining at 24 h)” value in series [1] is “A (<25% of the tested compound remaining)”.
